Measurements published in patent publication US4005073A, “6-Acyl derivatives of aminopenicillanic acid” (priority 1974, dated 1977).
Read-outs that look alike come from different tables or passages of the source.

How the values were obtained:
Escherichia coli = assay: CD50 in the mouse, Escherichia coli; assay type: in vivo
Source text: (§1) |CD50 (mg/kg) in the mouse

Acute Toxicity = conditions: mouse, in vivo
Source text: as §1

Pseudomonas Aeriginmos = assay: CD50 in the mouse, Pseudomonas Aeriginmos; assay type: in vivo
Source text: as §1

[1] = test system: S. aureous (penicillin resistant); assay: CD50 in the mouse, S. aureous (penicillin resistant); assay type: in vivo
Source text: as §1

Proteus Vulganis = assay: CD50 in the mouse, Proteus Vulganis; assay type: in vivo
Source text: as §1

[2] = Pseudomonas, po, read-out: CD50

Structure (SMILES) | ED50 (Escherichia coli; po, P.O.) [mg/kg] | ED50 (Escherichia coli; sc, S.C.) [mg/kg] | LD50 (Acute Toxicity) [mg/kg] | LD50 (Acute Toxicity; iv) [mg/kg] | ED50 (Pseudomonas Aeriginmos; [2]) [mg/kg] | ED50 (Pseudomonas Aeriginmos; sc, Pseudomonas Aeriginmos, mouse, S.C., read-out: CD50 (the source's name)) [mg/kg] | ED50 ([1]; po, P.O.) [mg/kg] | ED50 ([1]; sc, S.C.) [mg/kg] | ED50 (Pseudomonas Aeriginmos; Pseudomonas, sc, read-out: CD50) [mg/kg] | ED50 (Proteus Vulganis; sc, S.C.) [mg/kg] | LD50 (Acute Toxicity; po) [mg/kg] | ED50 (Proteus Vulganis; po, P.O.) [mg/kg]
CCOC(=O)C(CC(C)C)C(=O)N[C@@H]1C(=O)N2[C@@H]1SC(C)(C)[C@@H]2C(=O)O (some centres unmarked) [(1-[ethoxycarbonyl-3-methylbutyl)]-penicillin sodium] | 14 | 2.1 | 5000 | 2000 to 4000 | ~100 | ~80 | ~100 | 22 |  |  |  | 
CC(C)CC(C(=O)O)C(=O)N[C@@H]1C(=O)N2[C@@H]1SC(C)(C)[C@@H]2C(=O)O (some centres unmarked) [(1-Carboxy-3-methyl-butyl)-penicillin di-sodium] |  | 2.4 |  | 2000 to 4000 |  |  |  | 34 | 124 | 6.2 |  | 
CC(C)CC(C(=O)N[C@@H]1C(=O)N2[C@@H]1SC(C)(C)[C@@H]2C(=O)O)C(=O)OCc1ccccc1 (some centres unmarked) [(1-benzyloxycarbonyl-3-methylbutyl)-penicillin sodium] | 9 |  |  |  | 142 |  |  |  |  |  | 2500 to 5000 | 8.9
